Measured values: patent US20130280252A1, “METHOD FOR SELECTING PATIENT TO BE GIVEN DRUG FOR TREATING SEPTICEMIA” (MOCHIDA PHARMACEUTICAL CO., LTD., priority 2011, published 2013)
“Also recorded” adds a separate entry of the source. Structures can show the parent of a compound that is named as a salt. Where two headings read alike, the source gives them in different places.

Assays:
severe septic patients [1] = experiment: Human clinical test of E5564 in severe septic patients; format: in vivo; settings: patients meeting at least three SIRS criteria and sCD14-ST equal to or greater than cut-off
Protocol: (§1) According to one example of the patient selection standards, E5564 is administered to a patient who meets at least three items of the SIRS diagnostic criteria to [4] and whose sCD14-ST concentration is equal to or greater than the cut-off value. Addition of the sCD14-ST concentration to the indexes used in setting the patient selection standards enables establishment of the patient selection standards that suit the action mechanism of E5564 and thus permits further improvement in E5564 efficacy than when the patient selection standards are set using only the physiological conditions as indexes.

rabbit CLP model [2] = experiment: Rabbit CLP model with E5564 (Example 3-1); format: in vivo; settings: 3 mg/kg to 10 mg/kg; 1 and 5 hours or 2 and 6 hours after surgery
Protocol: A rabbit CLP model is prepared as in Example 1. The E5564 administration timing is set to 1 hour and 5 hours after surgery or 2 hours and 6 hours after surgery and, as in Example 1, the sCD14-ST concentration in the blood at the time the therapeutic agent is administered is later checked with reference to the blood sCD14-ST concentration transition data. The dosage of E5564 is 3 mg/kg to 10 mg/kg. The body temperature and the leukocyte count of the rabbits are measured with time and used as indexes of the physiological conditions.

severe septic patients [3] = settings: high-dosage group; mortality risk 20% to 80% by APACHE II Score; cited from earlier work
severe septic patients [4] = settings: severe sepsis with shock or respiratory failure, cited from earlier work
severe septic patients [5] = experiment: Human clinical test of Resatorvid in severe septic patients; format: in vivo; settings: patients meeting at least three SIRS criteria and sCD14-ST equal to or greater than cut-off
Protocol: The specific standards used for selection of patients are as follows: Severe sepsis meets at least three items of the SIRS diagnostic criteria to [4], and the patient has or is suspected to have an infection requiring treatment with antibiotics. Septic shock needs a vasopressor to maintain a systolic blood pressure of at least 90 mmHg even under an appropriate body fluid management.
as §1, with “Resatorvid” for “E5564”, “enables” for “permits”

rabbit CLP model [6] = experiment: Rabbit CLP model with Resatorvid (Example 2-1); format: in vivo; settings: 3 mg/kg to 10 mg/kg; 1 and 5 hours or 2 and 6 hours after surgery
Protocol: A rabbit CLP model is prepared as in Example 1. The Resatorvid administration timing is set to 1 hour and 5 hours after surgery or 2 hours and 6 hours after surgery and, as in Example 1, the blood sCD14-ST concentration at the time the therapeutic agent is administered is later checked with reference to the blood sCD14-ST concentration transition data. The dosage of Resatorvid is 3 mg/kg to 10 mg/kg. The body temperature and the leukocyte count of the rabbits are measured with time and used as indexes of the physiological conditions.

rabbit CLP model [7] = experiment: Resatorvid-administered rabbit CLP model (Example 4); format: in vivo
Protocol: Two Resatorvid-administered groups were set with different administration timings. Ten mg/kg of Resatorvid was intravenously administered at timings of 1 hour and 5 hours after surgery to one group (hereinafter referred to as first-hour administered group) and 3 hours and 7 hours after surgery to the other group (hereinafter referred to as third-hour administered group). A group not to be administered Resatorvid (hereinafter referred to as control group) was administered a 10% aqueous solution of cyclodextrin, a Resatorvid solvent, 1 hour and 5 hours after surgery. Each of the groups consisted of 10 individuals; survival was checked until 48 hours after surgery. The platelet count and the leukocyte count were measured until 24 hours after surgery.

[8] = tested on: cecal ligation and puncture-induced peritonitis rabbit model (rabbit CLP model); experiment: Rabbit CLP sepsis model, F1024S-D2(3) administered (Example 1); format: in vivo; settings: for Survival time: 10 mg/kg intravenously two hours after surgery
Protocol: A cecal ligation and puncture-induced peritonitis rabbit model (rabbit CLP model; CLP for cecal ligation and puncture) was used as the sepsis model to verify the improvement in efficacy of the therapeutic agent for sepsis when a patient to be administered the therapeutic agent for sepsis (F1024S-D2(3)) was selected using the sCD14-ST concentration as index. The rabbit CLP model was prepared using male rabbits, New Zealand white, each weighing 1.5 kg to 1.99 kg on arrival (Kitayama Labes Co., Ltd.), which had their cecum punctured under anesthesia at two places to make holes each measuring 2 cm to release the cecal contents into the peritoneal cavity according to the method described by Keith A et al (Journal of Surgical Research, Vol. 29, 189 (1980)). In order to stabilize the postsurgical state, all the operated individuals were intravenously administered 60 mg/kg of Shiomarin (Latamoxef Sodium for administration by injection, Shionogi & Co., Ltd.) two hours after surgery.
Blood was sampled at intervals before and after surgery to measure the sCD14-ST concentrations in the blood. The sCD14-ST concentrations in the blood were measured by the method described in Example 3 in WO2009/142303. In this model, the pathology progresses within several hours, resulting in death within 7 to 8 hours after surgery in the earliest cases. Because the measured values of the sCD14-ST concentration in the blood can only be known five to six hours after blood sampling, administering the therapeutic agent only after checking the results is belated. Therefore, the administration timing of the therapeutic agent was set to two hours after surgery, and the blood sCD14-ST concentration at the time when the therapeutic agent was administered was later checked with reference to blood sCD14-ST concentration transition data. Using the respective sCD14-ST concentrations in the blood before surgery of the individuals as normal values, twice the normal values were set as the respective cut-off values. Thus, the survival rates of the cases where the sCD14-ST concentrations in the blood were at least twice the normal values at the time of administration of the therapeutic agent were compared with that of the control cases (see Table 1). The therapeutic agent-administered cases were intravenously administered 10 mg/kg of F1024S-D2(3). The control cases were intravenously administered 10 mg/kg of human immunoglobulin (hIg) in lieu of F1024S-D2(3).
The transition of the sCD14-ST concentration in the blood reflects the severity of sepsis.

[9] = tested on: LPS-induced sepsis rabbit model; settings: cited from earlier work
[10] = tested on: human vascular endothelial cell; settings: cited from earlier work
[11] = tested on: cecal ligation and puncture-induced peritonitis rabbit model; settings: CLP-induced peritonitis rabbit model; cited from earlier work

For `CCCCCC/C=C\CCCCCCCCCC(=O)N[C@H]1[C@H](OC[C@H]2O[C@H](OP(=O)(O)O)[C@H](NC(=O)CC(=O)CCCCCCCCCCC)[C@@H](OCCCCCCCCCC)[C@@H]2O)O[C@H](COC)[C@@H](OP(=O)(O)O)[C@@H]1OCC[C@@H](CCCCCCC)OC` [E5564, α-D-Glucopyranose, 3-O-decyl-2-deoxy-6-O-[2-deoxy-3-O-[(3R)-3-methoxydecyl]-6-O-methyl-2-[[(11Z)-1-oxo-11-octadecenyl]amino]-4-O-phosphono-β-D-glucopyranosyl]-2-[(1,3-dioxotetradecyl)amino]-1-(dihydrogen phosphate), tetrasodium salt], which “Efficacy when patient selection standards use sCD14-ST concentration as index” value (severe septic patients [1]) is on record?
Its value is “improvement in E5564 efficacy can be observed”.

What about the “Efficacy when sCD14-ST concentration is used as index” value (rabbit CLP model [2]) of the same molecule?
The value was “reveals improvement in the efficacy”.

What about the Mortality rate (severe septic patients [3]) of the same molecule?
The Mortality rate was “a tendency to reduce the mortality rate was observed in a high-dosage group, but it was of no statistic significance”.

For `CCOC(=O)C1=CCCC[C@H]1S(=O)(=O)Nc1ccc(F)cc1Cl` [Resatorvid, ethyl (6R)-6-[N-(2-chloro-4-fluorophenyl)sulfonyl]cyclohex-1-ene-1-carboxylate], which Mortality rate (severe septic patients [4]; high-dosage group) is on record?
The Mortality rate was “a tendency to reduce the mortality rate was observed among the high-dosage group, it was of no statistic significance; also recorded: a tendency to reduce the mortality rate was observed in the high-dosage group, it was of no statistic significance”.

And the “Serum IL-6 level” value (severe septic patients [4])?
Its value is “failed to suppress the serum IL-6 level”.

What about the “Efficacy when patient selection standards use sCD14-ST concentration as index” value (severe septic patients [5]) of the same molecule?
The value was “improvement in Resatorvid efficacy can be observed”.

What about the “Efficacy when sCD14-ST concentration is used as index” value (rabbit CLP model [6]) of the same molecule?
Its value is “reveals improvement in the efficacy”.

What about the “Recovery in leukocyte count, first-hour versus third-hour administered group” value (rabbit CLP model [7]; 10 mg/kg i.v.) of the same molecule?
The value was “observed more significantly in the first-hour administered group than in the third-hour administered group”.

And the “Survival rate versus control group” value (rabbit CLP model [7]; 10 mg/kg i.v. at 1 and 5 hours or 3 and 7 hours after surgery, checked until 48 hours)?
The value was “survival rates improved in the first-hour Resatorvid-administered group and the third-hour Resatorvid-administered group over the control group”.

What about the Platelet count (rabbit CLP model [7]; 12th hour after surgery, 10 mg/kg i.v.) of the same molecule?
The Platelet count was “showed a tendency to recover at the 12th hour after surgery, but failed to recover”.

And the “Leukocyte count versus control group” value (rabbit CLP model [7]; 24th hour after surgery, 10 mg/kg i.v.)?
The value was “showed recovery in leukocyte count as compared with the control group”.

And the “Survival rate, first-hour versus third-hour administered group” value (rabbit CLP model [7]; first 24 hours, 10 mg/kg i.v.)?
Its value is “the first-hour administered group showed a higher survival rate than the third-hour administered group”.

B1: F1024S-D2(3): modified form of an anti-CD14 antibody in which the domain 2 of urinary trypsin inhibitor (UTI) is bound to the anti-CD14 antibody; fusion protein (antibody)
heavy: QIQLVQSGPELKKPGESVKISCKASGYTFTDYAMNWVKQAPGNGLKWMGWINTQTGKPTYADDFKQRFVFSLETSASTAYLQINNLNIEDTATYFCTRSTFYYSSYIYGWYFDFWGPGTMVTVSSASTKGPSVFPLAPCSRSTSESTAALGCLVKDYFPEPVTVSWNSGALTSGVHTFPAVLQSSGLYSLSSVVTVPSSSLGTKTYTCNVDHKPSNTKVDKRVESKYGPPGPSGPAPEFLGGPSVFLFPPKPKDTLMISRTPEVTCVVVDVSQEDPEVQFNWYVDGVEVHNAKTKPREEQFNSTYRVVSVLTVLHQDWLNGKEYKCKVSNKGLPSSIEKTISKAKGQPREPQVYTLPPSQEEMTKNQVSLTCLVKGFYPSDIAVEWESNGQPENNYKTTPPVLDSDGSFFLYSRLTVDKSRWQEGNVFSCSVMHEALHNHYTQKSLSLSLGKGSTVAACNLPIVSGPCRAFIKLWAFDAVKGKCVLFPYGGCQGNGNKFDSEKECREYCGVPGDGDEELLRFSN
light: DIVMTQSPTSISISVGERVTMNCKASQNVGSNVDWYQQKTGQSPKLLIYKASNRYTGVPDRFTGSGSGTDFTFTISNMQAVDLAVYYCMQSNTNPPWTFGGGTKLELKRTVAAPSVFIFPPSDEQLKSGTASVVCLLNNFYPREAKVQWKVDNALQSGNSQESVTEQDSKDSTYSLSSTLTLSKADYEKHKVYACEVTHQGLSSPVTKSFNRGEC
With B1 as the molecule, how does the Survival time ([8]; Severity Especially high) read?
The Survival time was 7 h.

What about the Survival time ([8]; Severity High) of the same molecule?
Its Survival time is 23 h.

What about the Survival time ([8]; Severity Medium) of the same molecule?
The Survival time was 47 h.

And the “Effect on survival time versus control cases” value ([8]; especially high severity cases)?
Its value is “no difference in survival time was observed”.

And the “Effect on survival time versus control cases” value ([8]; medium to high severity cases, administered when blood sCD14-ST at least twice the normal value)?
The value was “an effect of prolonging the survival time was observed”.

What about the Survival rate [9] of the same molecule?
The Survival rate was “improve the survival rate of an LPS-induced sepsis rabbit model”.

And the “Production of IL-6 induced by LPS stimulation” value [10]?
Its value is “suppress production of IL-6”.

What about the Survival rate [11] of the same molecule?
Its Survival rate is “improve the survival rate of a cecal ligation and puncture-induced peritonitis rabbit model”.
